Source: US20250275991A1, “ORAL COMPLEMENT FACTOR D INHIBITORS” (BioCryst Pharmaceuticals, Inc, priority 2019, published 2025)

Biological target: Factor D (Homo sapiens, UniProt P00746)
Experiment: Factor D esterolytic assay
Assay type: biochemical
Settings: substrate Z-Lys-SBzl 1.29 mM, 100 mM HEPES, 500 mM NaCl, pH 7.5, 10% DMSO, tested a minimum of three times
Experimental: The IC50 value of a compound (i.e., the concentration of the compound that inhibits 50% of the enzymatic activity) was calculated according to the procedure reported in U.S. Pat. No. 6,653,340 B1, e.g., column 74 (incorporated by reference).
Specifically, the compounds were dissolved in a stock solution of DMSO at 10.0 or 100 mM. A portion of this stock solution was added to assay buffer in a final volume of 50 μL. Controls included buffer alone and enzyme solutions to which DMSO was added. Substrate was added to the reaction wells immediately or after incubation at room temperature. The reaction rates were measured spectrophotometrically by the generation of product at 405 nm for 600 sec. Background absorbance at 690 nm was measured and subtracted from the absorbance at 405 nm for each well.
The reaction rate for enzyme alone was compared to the rate of enzyme in the presence of inhibitor and the percent inhibition was calculated as shown below: […]
An established esterolytic assay for the measurement of Factor D activity and inhibition of Factor D activity was used (Kam, C. M.; McRae, B. J.; Harper, J. W.; Niemann, M. A.; Volanakis, J. E.; Powers, J. C. Human complement proteins D, C2, and B Active site mapping with peptide thioester substrates. J Biol. Chem. 1987, 262, 3444-3451). For this assay Z-Lys-SBzl, 1.29 mM (Kim, S.; Narayana, S. V. L; Volanakis, J. E. Mutational analysis of the substrate binding site of human complement Factor D. Biochemistry. 1994, 33, 14393-14399.) was used as the substrate for Factor D ([…]). Hydrolysis of this compound by Factor D liberated a free sulfhydryl group which is then reacted with 5,5′-dithiobis(2nitrobenzoic acid) producing an intense yellow color (Habeeb, A. F. S. A. Reaction of protein sulfhydryl groups with Ellman's Reagent. Methods in Enzymol. 1976, 25, 457-464). The assays were performed in 96 well microtiter plates and rates of hydrolysis were monitored at 405 nm on a Biotek Synergy H1 plate reader. Hydrolysis rates were reported as change in mOD/min. The assay was conducted in 100 mM HEPES, 500 mM NaCl, pH 7.5 containing 10% DMSO in a final volume of 50 μL per well.
An IC50, a compound concentration which inhibits 50% of the enzymatic activity, was calculated. Compounds in the examples were tested a minimum of three times.

Sequence of Factor D (P00746 26-253): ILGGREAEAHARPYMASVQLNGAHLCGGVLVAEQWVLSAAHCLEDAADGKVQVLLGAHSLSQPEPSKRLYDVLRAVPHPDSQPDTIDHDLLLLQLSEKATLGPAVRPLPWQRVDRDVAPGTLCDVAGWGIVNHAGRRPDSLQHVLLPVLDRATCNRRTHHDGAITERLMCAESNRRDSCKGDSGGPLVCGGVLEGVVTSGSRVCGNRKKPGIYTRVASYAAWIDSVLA

For `CCC(N)c1cccc(-c2cc(COc3ccccc3CC(=O)O)cc3ccoc23)c1` (centres unmarked) [Compound 2f, 2-(2-((7-(3-(1-aminopropyl)phenyl)benzofuran-5-yl)methoxy)phenyl)acetic acid], the IC50 was < 1000 nM.
With `COc1ccc(CC(=O)O)c(OCc2cc(-c3cccc(CN)c3F)c3occc3c2F)c1` [Compound 42e, 2-(2-((7-(3-(aminomethyl)-2-fluorophenyl)-4-fluorobenzofuran-5-yl)methoxy)-4-methoxyphenyl)acetic acid] the IC50 was < 1000 nM.
With `NCc1nccc(-c2cc(COc3ccccc3CC(=O)O)cc3c(F)coc23)c1F` [Compound 46d, 2-(2-((7-(2-(aminomethyl)-3-fluoropyridin-4-yl)-3-fluorobenzofuran-5-yl)methoxy)phenyl)acetic acid] the IC50 was < 1000 nM.
`NCc1ccc(-c2nc(C(=O)Nc3ccccc3CC(=O)O)c3cccn3n2)cc1` [Compound 82g, 2-(2-(2-(4-(aminomethyl)phenyl)pyrrolo[2,1-f][1,2,4]triazine-4-carboxamido)phenyl)acetic acid] was tested, and the IC50 was > 10000 nM.
With `CC(=O)NCc1ccc(CC(=O)O)c(OCc2cc(-c3cccc(CN)c3)c3occc3c2)c1` [Compound 30c, 2-(4-(acetamidomethyl)-2-((7-(3-(aminomethyl)phenyl)benzofuran-5-yl)methoxy)phenyl)acetic acid] the IC50 was < 1000 nM.
In the case of `NCc1cccc(-c2cc(COc3ccccc3CC(=O)O)c(OCC3CCCO3)c3ccoc23)c1` (centres unmarked) [Compound 69g, 2-(2-((7-(3-(aminomethyl)phenyl)-4-((tetrahydrofuran-2-yl)methoxy)benzofuran-5-yl)methoxy)phenyl)acetic acid], the IC50 is reported as < 1000 nM.
`CC(Oc1ccccc1CC(=O)O)c1cc(-c2cccc(CN)c2)c2occc2c1` (centres unmarked) [Compound 77e, 2-(2-(1-(7-(3-(aminomethyl)phenyl)benzofuran-5-yl)ethoxy)phenyl)acetic acid] was tested, and the IC50 was < 1000 nM.
In the case of `CC(C)C(N)C(=O)OCc1cc2cc(COc3ccccc3CC(=O)O)cc(-c3cccc(CN)c3)c2o1` (centres unmarked) [Compound 24b, 2-(2-((2-(((2-amino-3-methylbutanoyl)oxy)methyl)-7-(3-(aminomethyl)phenyl)benzofuran-5-yl)methoxy)phenyl)acetic acid], the IC50 is reported as < 1000 nM.
With `NCc1cc(-c2cc(COc3ccc(F)cc3CC(=O)O)cc3cc(F)oc23)ccn1` [Compound 73c, 2-(2-((7-(2-(aminomethyl)pyridin-4-yl)-2-fluorobenzofuran-5-yl)methoxy)-5-fluorophenyl)acetic acid] the IC50 was < 1000 nM.
For `COCOc1c(COc2ccccc2CC(=O)O)cc(-c2cccc(CN)c2)c2occc12` [Compound 81h, 2-(2-((7-(3-(aminomethyl)phenyl)-4-(methoxymethoxy)benzofuran-5-yl)methoxy)phenyl)acetic acid], the IC50 was < 1000 nM.
With `CCC(C(=O)O)c1ccccc1OCc1cc(-c2ccnc(CN)c2F)c2occc2c1` (centres unmarked) [Compound 38c, 2-(2-((7-(2-(aminomethyl)-3-fluoropyridin-4-yl)benzofuran-5-yl)methoxy)phenyl)butanoic acid] the IC50 was < 1000 nM.
For `NCc1cccc(-c2cc(COc3ccccc3)cc3ccoc23)c1` [Compound 83b, (3-(5-(phenoxymethyl)benzofuran-7-yl)phenyl)methanamine], the IC50 was > 10000 nM.
`NCc1cc(-c2cc(COc3ccccc3CC(=O)O)cc3c(F)coc23)ccn1` [Compound 47c, 2-(2-((7-(2-(aminomethyl)pyridin-4-yl)-3-fluorobenzofuran-5-yl)methoxy)phenyl)acetic acid] was tested, and the IC50 was < 1000 nM.
`CCOC(=O)NC(C)c1ccc(CC(=O)O)c(OCc2cc(-c3cccc(CN)c3)c3occc3c2)c1` (single isomer, unassigned; (+)) [Compound 54g, (+)-2-(2-((7-(3-(aminomethyl)phenyl)benzofuran-5-yl)methoxy)-4-(1-(ethoxycarbonylamino)ethyl)phenyl)acetic acid] was tested, and the IC50 was < 1000 nM.
For `CC(=O)c1ccc(CC(=O)O)c(OCc2cc(-c3ccnc(CN)c3F)c3oc(F)cc3c2)c1` [Compound 75d, 2-(4-acetyl-2-((7-(2-(aminomethyl)-3-fluoropyridin-4-yl)-2-fluorobenzofuran-5-yl)methoxy)phenyl)acetic acid], the IC50 was < 1000 nM.
For `NCc1cccc(-c2cc(COc3ccc(F)cc3CC(=O)O)cc3cc(F)oc23)c1` [Compound 16f, 2-(2-((7-(3-(aminomethyl)phenyl)-2-fluorobenzofuran-5-yl)methoxy)-5-fluorophenyl)acetic acid], the IC50 was < 1000 nM.
For `NCc1cccc(-c2cc(COc3ccccc3CC(=O)O)c(OCC(=O)O)c3ccoc23)c1` [Compound 65g, lithium 2-((7-(3-(aminomethyl)phenyl)-5-((2-(carboxymethyl)phenoxy)methyl)benzofuran-4-yl)oxy)acetate], the IC50 was < 1000 nM.
In the case of `NCc1cccc(-c2cc(COc3ccccc3C(NC(=O)C3CC3)C(=O)O)cc3ccoc23)c1` (single isomer, unassigned; (-)) [Compound 51f, (−)-2-(2-((7-(3-(aminomethyl)phenyl)benzofuran-5-yl)methoxy)phenyl)-2-(cyclopropanecarboxamido)acetic acid], the IC50 is reported as < 1000 nM.
With `CC(N)c1cc(-c2cc(COc3ccccc3CC(=O)O)cc3ccoc23)cs1` (centres unmarked) [Compound 4c, 2-(2-((7-(5-(1-aminoethyl)thiophen-3-yl)benzofuran-5-yl)methoxy)phenyl)acetic acid] the IC50 was > 10000 nM.
`CC(=O)c1ccc(CC(=O)O)c(OCc2cc(-c3cccc(CN)c3)c3occc3c2F)c1` [Compound 48g, 2-(4-acetyl-2-((7-(3-(aminomethyl)phenyl)-4-fluorobenzofuran-5-yl)methoxy)phenyl)acetic acid] was tested, and the IC50 was < 1000 nM.
With `CC(C)C(N)c1cccc(-c2cc(COc3ccccc3CC(=O)O)cc3ccoc23)c1` (centres unmarked) [Compound 3c, 2-(2-((7-(3-(1-amino-2-methylpropyl)phenyl)benzofuran-5-yl)methoxy)phenyl)acetic acid] the IC50 was 1000 to 10000 nM.
`Cc1ccc(CC(=O)O)c(OCc2cc(-c3cccc(CN)c3)c3occ(F)c3c2)c1` [Compound 49d, 2-(2-((7-(3-(aminomethyl)phenyl)-3-fluorobenzofuran-5-yl)methoxy)-4-methylphenyl)acetic acid] was tested, and the IC50 was < 1000 nM.
For `CC(=O)c1ccc(CC(=O)O)c(OCc2cc(-c3cccc(CN)c3)c3oc(F)cc3c2)c1` [Compound 64h, 2-(4-acetyl-2-((7-(3-(aminomethyl)phenyl)-2-fluorobenzofuran-5-yl)methoxy)phenyl)acetic acid], the IC50 was < 1000 nM.
`CC(O)c1ccc(CC(=O)O)c(OCc2cc(-c3cccc(CN)c3)c3occc3c2)c1` (centres unmarked) [Compound 72e, 2-(2-((7-(3-(aminomethyl)phenyl)benzofuran-5-yl)methoxy)-4-(1-hydroxyethyl)phenyl)acetic acid] was tested, and the IC50 was < 1000 nM.
In the case of `NCc1cccc(-c2cc(COc3ccc(F)cc3CC(=O)O)cc3cc(F)oc23)c1F` [Compound 18c, 2-(2-((7-(3-(aminomethyl)-2-fluorophenyl)-2-fluorobenzofuran-5-yl)methoxy)-5-fluorophenyl)acetic acid], the IC50 is reported as < 1000 nM.
`NCc1nccc(-c2cc(COc3ccc(F)cc3CC(=O)O)cc3cc(F)oc23)c1F` [Compound 17d, 2-(2-((7-(2-(aminomethyl)-3-fluoropyridin-4-yl)-2-fluorobenzofuran-5-yl)methoxy)-5-fluorophenyl)acetic acid] was tested, and the IC50 was < 1000 nM.
